From patent US8846951B2 (AbbVie Inc., priority 2009, dated 2014)
Where two headings read alike, the source gives them in different places.

How the values were obtained:
5HT2C receptors = biological target: T1, 5HT2C receptors (Homo sapiens, UniProt P28335); experiment: Human 5-HT2C functional high throughput screening assay in CHO-K1 cells (calcium flux); format: cell-based; set-up: expressed in transfected cells; host or cells: CHO-K1 cells; settings: for EC50: CHO-K1 cells, calcium flux; for Emax: CHO-K1, 5-HT2C, maximum functional response as percentage relative to the effect of serotonin
T1 sequence (P28335 33-458): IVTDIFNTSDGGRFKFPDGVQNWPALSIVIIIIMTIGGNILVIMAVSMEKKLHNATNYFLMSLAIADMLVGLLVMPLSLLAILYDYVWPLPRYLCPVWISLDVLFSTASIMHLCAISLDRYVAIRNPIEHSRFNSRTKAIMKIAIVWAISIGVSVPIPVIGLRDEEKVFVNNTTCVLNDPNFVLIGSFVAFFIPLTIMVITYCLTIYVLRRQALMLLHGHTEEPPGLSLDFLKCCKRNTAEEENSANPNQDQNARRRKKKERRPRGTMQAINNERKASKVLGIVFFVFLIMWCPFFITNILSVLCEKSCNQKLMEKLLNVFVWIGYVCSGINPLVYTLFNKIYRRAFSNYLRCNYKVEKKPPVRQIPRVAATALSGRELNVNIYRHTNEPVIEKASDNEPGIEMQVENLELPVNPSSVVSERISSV
How it was run: (§1)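 Calcium flux in CHO-K1 cells overexpressing each receptor, using Ca4 dye with probenecid and FLIPR detection. Top concentration was 10 μM, diluted 1:10 across 6 points, and efficacy was scaled to serotonin.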

5HT2B receptors = biological target: T2, 5HT2B receptors (Homo sapiens, UniProt P41595); experiment: Human 5-HT2B functional high throughput screening assay in CHO-K1 cells (calcium flux); format: cell-based; settings: for EC50: CHO-K1 cells, calcium flux
T2 construct: expressed in transfected cells; host or cells: CHO-K1 cells
How it was run: as §1

[1] = 5-HT2C agonist activity, read-out: EC50
[2] = 5-HT2B agonist activity, read-out: EC50
[3] = 5-HT2B, maximum functional response as percentage relative to the effect of serotonin

T2 sequence (P41595 whole entry): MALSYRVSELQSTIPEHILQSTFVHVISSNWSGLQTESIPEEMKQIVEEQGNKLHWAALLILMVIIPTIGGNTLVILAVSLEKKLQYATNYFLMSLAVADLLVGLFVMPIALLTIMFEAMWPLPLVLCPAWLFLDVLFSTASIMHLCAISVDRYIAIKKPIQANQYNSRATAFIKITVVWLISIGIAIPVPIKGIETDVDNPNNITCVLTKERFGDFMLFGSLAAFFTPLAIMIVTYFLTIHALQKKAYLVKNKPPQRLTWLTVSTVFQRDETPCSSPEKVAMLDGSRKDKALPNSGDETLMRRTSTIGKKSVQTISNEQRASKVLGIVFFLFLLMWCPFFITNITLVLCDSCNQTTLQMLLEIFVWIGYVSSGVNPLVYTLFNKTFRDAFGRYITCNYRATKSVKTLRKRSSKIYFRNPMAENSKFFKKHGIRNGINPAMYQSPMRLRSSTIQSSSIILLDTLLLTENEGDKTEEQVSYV

EC50 (5HT2C receptors; [1])	Emax (5HT2C receptors; read-out: Emax)	EC50 (5HT2B receptors; [2])	Emax (5HT2B receptors; [3])	Structure (SMILES)	Emax (5HT2C receptors)	EC50 (5HT2C receptors; EC50, 5-HT2C agonist activity)	EC50 (5HT2B receptors; EC50, 5-HT2B agonist activity)	Emax (5HT2B receptors; CHO-K1)
2 nM	120%	> 10000 nM	inactive	CC(=O)c1cccc(-c2ccc3c(c2)C(=O)NC[C@H]2CN(C)C[C@H]32)c1 [Example 278, (3aS,10bS)-8-(3-Acetylphenyl)-2-methyl-1,2,3,3a,4,5-hexahydrobenzo[e]pyrrolo[3,4-c]azepin-6(10bH)-one]				
6000 nM	60%	> 10000 nM	inactive	CN1C[C@H]2CNC(=O)c3cc(C(=O)NCCc4ccccc4)ccc3[C@@H]2C1 (relative stereo) [Example 126, Trans-2-methyl-6-oxo-N-phenethyl-1,2,3,3a,4,5,6,10b-octahydrobenzo[e]pyrrolo[3,4-c]azepine-8-carboxamide]				
200 nM	110%	> 10000 nM	inactive	c1ccc(-c2ccc3c(c2)OCC[C@H]2CNC[C@H]32)cc1 (relative stereo) [Example 108, Trans-8-phenyl-2,3,3a,4,5,10b-hexahydro-1H-[1]benzoxepino[4,5-c]pyrrole]				
20 nM	90%	> 10000 nM	inactive	CC(O)c1cccc(-c2cccc3c2OCC[C@H]2CNC[C@H]32)c1 (relative stereo) [Example 367, 1-{3-[Trans-2,3,3a,4,5,10b-hexahydro-1H-[1]benzoxepino[4,5-c]pyrrol-7-yl]phenyl}ethanol]				
				Cc1ccccc1S(=O)(=O)N1Cc2cccnc2[C@@H]2CNC[C@H]2C1 (relative stereo) [Example 341, Trans-6-[(2-methylphenyl)sulfonyl]-5,6,7,7a,8,9,10,10a-octahydropyrido[3,2-c]pyrrolo[3,4-e]azepine]	90%	90 nM	300 nM	65%
2 nM	> 120%	> 10000 nM	inactive	CN1C[C@@H]2CNC(=O)c3cc(OCc4cc(F)cc(F)c4)ccc3[C@H]2C1 [Example 208, (3aS,10bS)-8-(3,5-Difluorobenzyloxy)-2-methyl-1,2,3,3a,4,5-hexahydrobenzo[e]pyrrolo[3,4-c]azepin-6(10bH)-one]				
40 nM	> 120%	> 10000 nM	inactive	O=C1NC[C@@H]2CN(Cc3ccccc3)C[C@H]2c2ccc(-c3ccc(F)cc3)cc21 (relative stereo) [Example 218, Trans-2-benzyl-8-(4-fluorophenyl)-1,2,3,3a,4,5-hexahydrobenzo[e]pyrrolo[3,4-c]azepin-6(10bH)-one]				
	> 120%	> 10000 nM	inactive	O=C1NC[C@@H]2CNC[C@H]2c2ccc(-c3ccc(F)cc3)cc21 [Example 221, (3aS,10bR)-8-(4-Fluorophenyl)-1,2,3,3a,4,5-hexahydrobenzo[e]pyrrolo[3,4-c]azepin-6(10bH)-one]				

Structure (SMILES)	EC50 (5HT2C receptors; [1])	Emax (5HT2C receptors; read-out: Emax)	EC50 (5HT2B receptors; [2])	Emax (5HT2B receptors; [3])	Emax (5HT2C receptors)	EC50 (5HT2C receptors; EC50, 5-HT2C agonist activity)	EC50 (5HT2B receptors; EC50, 5-HT2B agonist activity)	Emax (5HT2B receptors; CHO-K1)
CC(C)CCOc1ccc2c(c1)C(=O)NC[C@@H]1CN(C)C[C@@H]21 (relative stereo) [Example 171, Trans-8-(isopentyloxy)-2-methyl-1,2,3,3a,4,5-hexahydrobenzo[e]pyrrolo[3,4-c]azepin-6(10bH)-one]				inactive	> 120%	30 nM	> 10000 nM	
CCC(C)Oc1ccc2c(c1)C(=O)NC[C@@H]1CNC[C@@H]21 (relative stereo) [Example 165, Trans-8-sec-butoxy-1,2,3,3a,4,5-hexahydrobenzo[e]pyrrolo[3,4-c]azepin-6(10bH)-one]				inactive	> 120%	80 nM	> 10000 nM	
O=S(=O)(c1ccc(F)cc1)N1Cc2cccnc2[C@@H]2CNC[C@H]2C1 (relative stereo) [Example 357, Trans-6-[(4-fluorophenyl)sulfonyl]-5,6,7,7a,8,9,10,10a-octahydropyrido[3,2-c]pyrrolo[3,4-e]azepine]				inactive	85%	100 nM	> 10000 nM	
